Source: ChEMBL document CHEMBL5120746, “Novel 5-fluorouracil sensitizers for colorectal cancer therapy: Design and synthesis of S1P receptor 2 (S1PR2) antagonists” (Eur J Med Chem, 2022)
pEC50, pKd: −log10 of the molar value.

Assays:
[1] = target: T1, Sphingosine 1-phosphate receptor 2 (Homo sapiens, UniProt O95136); test: Binding affinity to S1PR2 (unknown origin) by SPR assay
HCT-116 [2] = test: Reversal of 5-FU resistance against 5-FU resistant DPD expressed human HCT-116 cells assessed as reduction in cell viability incubated for 48 hrs in presence of 5-FU by MTT assay; assay type: functional, cell-based; settings: HCT-116, 48 h
SW620/5-FU [3] = test: Reversal of 5-FU resistance against human SW620/5-FU cells assessed as reduction in cell viability incubated for 48 hrs in presence of 5-FU by MTT assay; assay type: functional, cell-based
[4] = target: T1, Sphingosine 1-phosphate receptor 2; test: Antagonist activity at S1PR2 in human SW620/5-FU cells assessed as reduction of DPD-catalyzed 5-FU degradation by measuring intracellular 5-FU level at 20 uM measured after 24 hrs by HPLC-UV analysis; assay type: functional, cell-based; settings: filed as antagonist
HCT-116 [5] = test: Antitumor activity against DPD expressed human HCT-116 cells xenografted in SPF nude mouse assessed as tumor growth inhibition at 15 mg/kg, iv QD for 20 days and measured every 4 days; assay type: functional; settings: HCT-116, 480 h, time 20 day, read-out: TGI
SW620/5-FU [6] = test: Antitumor activity against human SW620/5-FU cells xenografted in SPF nude mouse assessed as tumor growth inhibition at 15 mg/kg, iv QD for 21 days and measured every 4 days; assay type: functional; settings: 504 h, time 21 day, read-out: TGI
SW620/5-FU [7] = test: Antitumor activity against human SW620/5-FU cells xenografted in SPF nude mouse assessed as reduction in tumor weight at 15 mg/kg, iv QD for 21 days; assay type: functional; parameters: scale not given: the % may be the effect or the level left; settings: time 21 day
HCT-116 [8] = test: Antiproliferative activity against 5-FU resistant DPD expressed human HCT-116 cells assessed as reduction in cell viability incubated for 48 hrs by MTT assay; assay type: functional, cell-based; settings: HCT-116, 48 h
SW620/5-FU [9] = test: Antiproliferative activity against human SW620/5-FU cells assessed as reduction in cell viability incubated for 48 hrs by MTT assay; assay type: functional, cell-based

T1 sequence (O95136 whole entry): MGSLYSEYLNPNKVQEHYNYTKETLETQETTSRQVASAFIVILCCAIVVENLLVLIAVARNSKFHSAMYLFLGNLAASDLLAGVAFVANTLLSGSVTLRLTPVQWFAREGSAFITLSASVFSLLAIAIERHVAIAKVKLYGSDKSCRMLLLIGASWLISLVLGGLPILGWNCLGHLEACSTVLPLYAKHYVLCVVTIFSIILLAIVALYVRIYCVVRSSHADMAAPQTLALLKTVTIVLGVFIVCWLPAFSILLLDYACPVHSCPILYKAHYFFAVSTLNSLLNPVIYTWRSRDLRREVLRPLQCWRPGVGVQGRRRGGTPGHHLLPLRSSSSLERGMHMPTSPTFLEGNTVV

| SMILES | pKd [1] | pEC50 (HCT-116 [2]) | pEC50 (SW620/5-FU [3]) | also measured |
| --- | --- | --- | --- | --- |
| Cc1nn(C)c2nc(NNC(=O)Nc3cc(Cl)nc(Cl)c3)cc(C3CCCCC3)c12 | 5.70 | 4.42 | 4.66 |  |
| Cn1ncc2c(-c3ccccc3)cc(NNC(=O)Nc3cc(Cl)nc(Cl)c3)nc21 | 5.99 | 5.20 | 4.11 |  |
| CCN(CC)c1cc(NC(=O)NNc2cc(-c3ccc(F)cc3)c3cnn(C)c3n2)cc(Cl)n1 | 5.50 | 4.53 | 4.43 |  |
| Cc1ccc(NC(=O)NNc2cc(-c3ccc(F)cc3)c3cnn(C)c3n2)cc1Nc1nccc(-c2cccnc2)n1 | 5.22 | 4.41 | 4.48 |  |
| Cc1nn(C)c2nc(NNC(=O)Nc3cc(Cl)nc(Cl)c3)cc(-c3ccco3)c12 | 5.19 | 4.16 | < 4.00 |  |
| COc1ccc(-c2cc(NNC(=O)Nc3cc(Cl)nc(Cl)c3)nc3c2cnn3C)cc1 | 6.28 | 4.91 | 4.73 |  |
| Cc1nn(C)c2nc(NNC(=O)Nc3cc(Cl)nc(Cl)c3)cc(C(C)C)c12 | 5.71 | 4.74 | 4.23 | Activity [4]: 1.75 µM |
| Cc1nn(C)c2nc(NNC(=O)Nc3cc(Cl)nc(Cl)c3)cc(-c3ccccc3)c12 | 5.27 | 4.10 | 4.64 |  |
| Cn1ncc2c(-c3ccc(F)cc3)cc(NNC(=O)Nc3cc(Cl)cc(Cl)c3)nc21 | 5.30 | 4.41 | 4.27 |  |
| CC(C)c1cc(NNC(=O)Nc2cc(Cl)nc(Cl)c2)nc2c1cnn2C | 6.11 | 4.77 | 4.30 |  |
| Cc1nn(C)c2nc(NNC(=O)Nc3cc(Cl)nc(Cl)c3)cc(-c3ccc(Cl)s3)c12 | 5.70 | 4.38 | 4.53 |  |
| CCCCOc1cc(NC(=O)NNc2cc(-c3ccc(F)cc3)c3cnn(C)c3n2)cc(Cl)n1 | 5.58 | 4.31 | 4.53 |  |
| Cn1ncc2c(-c3ccc(F)cc3)cc(NNC(=O)Nc3cc(Cl)nc(OCCF)c3)nc21 | 5.55 | 4.43 | 4.53 |  |
| Cc1nn(C)c2nc(NNC(=O)Nc3cc(Cl)nc(Cl)c3)cc(C3CC3)c12 | 5.44 | 4.17 | 4.09 |  |
| Cc1cc(NNC(=O)Nc2cc(Cl)nc(Cl)c2)nc2c1c(C)nn2C | 4.96 | < 4.00 | < 4.00 |  |
| COc1ccc(-c2cc(NNC(=O)Nc3cc(Br)nc(Br)c3)nc3c2cnn3C)cc1 | 5.20 | 4.34 | 4.27 |  |
| CCCCOc1cc(NC(=O)NNc2cc(-c3ccc(OC)cc3)c3cnn(C)c3n2)cc(Cl)n1 | 5.38 | 4.44 | 4.41 |  |

| SMILES | pKd [1] | pEC50 (HCT-116 [2]) | pEC50 (SW620/5-FU [3]) | also measured |
| --- | --- | --- | --- | --- |
| CC(C)c1cc(NNC(=O)Nc2cc(Cl)nc(Cl)c2)nc2c1c(C(F)(F)F)nn2C | 5.90 | 4.57 | 4.72 |  |
| Cc1nn(C)c2nc(NNC(=O)Nc3cc(Cl)nc(Cl)c3)cc(-c3ccc(F)cc3)c12 | 6.01 | 4.60 | 4.76 |  |
| O=c1[nH]cc(F)c(=O)[nH]1 [FLUOROURACIL] |  |  |  | inhibition in vivo at 15 mg/kg (HCT-116 [5]): 20.3%; inhibition in vivo at 15 mg/kg (SW620/5-FU [6]): 21.2%; Activity (SW620/5-FU [7]): 27.23%; pEC50 (HCT-116 [8]): < 3.00; pEC50 (SW620/5-FU [9]): < 3.00 |
| CCCc1cc(NNC(=O)Nc2cc(Cl)nc(Cl)c2)nc2c1c(C(F)(F)F)nn2C | 6.05 | 4.42 | 4.93 |  |
| COc1ccc(-c2cc(NNC(=O)Nc3cc(Cl)nc(Cl)c3)nc3c2c(C)nn3C)cc1 | 5.99 | 4.08 | 5.01 |  |
| CCCc1cc(NNC(=O)Nc2cc(Cl)nc(Cl)c2)nc2c1cnn2C | 5.85 | 4.12 | 4.41 |  |
| COc1ccc(-c2cc(NNC(=O)Nc3cc(Cl)nc(OC(C)C)c3)nc3c2cnn3C)cc1 | 5.63 | 4.40 | 4.33 |  |
| COc1ccc(-c2cc(NNC(=O)Nc3cc(Cl)nc(OC)c3)nc3c2cnn3C)cc1 | 5.70 | 4.27 | 4.31 |  |
| CCCOc1cc(NC(=O)NNc2cc(-c3ccc(OC)cc3)c3cnn(C)c3n2)cc(Cl)n1 | 5.50 | 4.48 | 4.43 |  |
| COc1cc(NC(=O)NNc2cc(-c3ccccc3)c3cnn(C)c3n2)cc(Cl)n1 | 5.44 | 4.51 | 4.54 |  |
| Cn1nc(C(F)(F)F)c2c(-c3ccccc3)cc(NNC(=O)Nc3cc(Cl)nc(Cl)c3)nc21 | 6.03 | 4.74 | 4.88 |  |
| CCCc1cc(NNC(=O)Nc2cc(Cl)nc(Cl)c2)nc2c1c(C)nn2C | 5.63 | 4.14 | 4.39 |  |
| Cc1c(Cc2ccccc2)c(NNC(=O)Nc2cc(Cl)nc(Cl)c2)nc2c1cnn2C | 6.06 | 4.87 | 4.67 |  |
| COc1cc(NC(=O)NNc2cc(-c3ccc(F)cc3)c3cnn(C)c3n2)cc(Cl)n1 | 5.78 | 4.12 | 4.62 |  |
| Cn1ncc2c(-c3ccc(F)cc3)cc(NNC(=O)N/C=C/c3cccnc3)nc21 | 5.39 | 4.44 | 4.31 |  |
| Cn1ncc2c(-c3ccc(F)cc3)cc(NNC(=O)Nc3cc(F)cc(F)c3)nc21 | 5.40 | 4.34 | 4.32 |  |
| COc1cc(NC(=O)NNc2cc(-c3ccc(F)cc3)c3cnn(C)c3n2)cc(OC)c1OC | 5.35 | 4.34 | 4.41 |  |
